{"source": "patent US11021688B2", "about": "“Derivation of human skin organoids from pluripotent stem cells” (INDIANA UNIVERSITY RESEARCH AND TECHNOLOGY CORPORATION, priority 2015, dated 2021)", "type_in_all_cases": "cell-based, human", "key": {"[1]": {"tested_on": "hPSC-derived skin organoids", "experiment": "Pigmentation of hair follicles in skin organoids", "conditions": "pre-treated during days 8-12", "description": "After 4 days of incubation, 25 μl of CDM containing a 250 ng ml^−1 FGF-2 (50 ng/ml final concentration) and 1 μM LDN-193189 (200 nM final concentration) was added to the pre-existing 100 μl of media in each well. After an additional 4 days (8 days total), 250 of CDM was added to the media. For some experiments, CDM containing 18 μM CHIR99021 (3 μM final concentration; Stemgent) was added to the pre-existing 125 μl of media in each well. During day 12 transfer to OMM, aggregates were resuspended in ice cold undiluted GFR Matrigel and placed in approximately 25 μl droplets on the surface of a 100 mm bacterial culture plate. After at least 30 minutes of incubation at 37° C., the droplets were bathed in 10 ml of OMM. To avoid Matrigel droplet induction, the aggregates can be washed and plated individually into each well of a 24-well low cell adhesion plate in OMM containing 1% GFR Matrigel. After 18 days of differentiation, the CHIR was removed from the medium by washing and the droplet aggregates were moved to a floating culture. Droplets were carefully dislodged using a wide-mouth 1000P tip and transferred to 75 ml of fresh OMM in a 125 ml disposable spinner flask (Corning). Spinner flasks were maintained on an in-incubator stir plate (Thermo Scientific) at 65 RPM for up to 180 days of differentiation. […]"}, "hPSC-derived aggregates [2]": {"tested_on": "hPSC-derived aggregates", "experiment": "Structures formed under treatment plans during days 0-12 of differentiation", "conditions": "treatment after initial 10 μM SB+4 ng/ml FGF; with or without insulin", "source_text": "A-b, Treatment conditions during days 0-12 were: no treatment (NT), LDN (from d4-d12), LDN/FGF (from d4-d12), and LDN/FGF (from d4-d12)+CHIR (from d8-d12). From days 22-55, skin organoids formed in LDN/FGF and LDN/FGF/CHIR conditions with or without insulin. […] We detached the droplet embedded aggregates from the plate and placed them in a rotating or shaking floating culture in OMM for up to 60 days. By 30-55 days of culture, skin organoids consisted of KRT5^+ basal keratinocytes and PDGFRa^+ dermal fibroblasts (FIGS. 7A-7C). The skin organoids developed as a cyst with an inner layer of epidermis and an outer layer of dermis. We next wondered what mechanism controlled the induction of skin organoids and tested various treatment plans with or without insulin in the CDM during days 0-12 of differentiation (FIGS. 8A-8B). After 12 days, the aggregates were transferred to Matrigel in OMM as previously mentioned. […] Intriguingly, without insulin, the skin organoids were 2.5-3.5 times larger on average than insulin treated aggregates. We chose to continue our analysis with FGF/LDN and FGF/LDN/CHIR (without insulin) treated aggregates."}, "[3]": {"tested_on": "WA25 hESC and mND2-0 hiPSC aggregates", "experiment": "Keratinocyte (non-neural ectoderm) induction in hPSC aggregates in 3D culture", "conditions": "n=40 aggregates per cell line across 4 experiments", "procedure": "We sought to develop a novel human non-neural induction protocol that could generate skin organoids. Human pluripotent stem cells of the WA25 cell line were dissociated in Essential 8 (E8) culture medium into single cells. Approximately 5000 cells were plated in each well of a 96-well V-bottom plate. Following 24 hours in culture, pluripotent cell aggregates that formed were transferred to 96-well U-bottom plates and cultured in a differentiation medium in the presence of Matrigel. This was considered “day 0” of differentiation (see FIG. 1). In comparing our mouse pluripotent stem cell (mPSC) system with our human (hPSC) system, it was observed that hPSCs appear to produce different endogenous signaling molecules that must be added as exogenous factors for mPSC cultures. Assays were performed to identify key factors dictating non-neural ectoderm induction in hPSC aggregates. It was determined that treating hPSC aggregates with the TGF signaling inhibitor SB-431542 in a chemically-defined medium with or without a low concentration of BMP4 (<5 ng/ml) (CDM; Table 1) produces a surface epithelium of TFAP2^+ (AP2) non-neural ectoderm cells (FIGS. 3A-3F). After a 10-12 day incubation, the aggregates were transferred to a floating culture on low-cell attachment plates in organoid maturation medium (OMM; see Table 2). […]"}, "[4]": {"tested_on": "hPSC-derived skin organoids", "experiment": "Skin organoid size with or without insulin in the differentiation medium", "conditions": "LDN/FGF and LDN/FGF/CHIR conditions; n=6 organoids/condition", "source_text": "A-b, Treatment conditions during days 0-12 were: no treatment (NT), LDN (from d4-d12), LDN/FGF (from d4-d12), and LDN/FGF (from d4-d12)+CHIR (from d8-d12). From days 22-55, skin organoids formed in LDN/FGF and LDN/FGF/CHIR conditions with or without insulin.\nWe detached the droplet embedded aggregates from the plate and placed them in a rotating or shaking floating culture in OMM for up to 60 days. By 30-55 days of culture, skin organoids consisted of KRT5^+ basal keratinocytes and PDGFRa^+ dermal fibroblasts (FIGS. 7A-7C). The skin organoids developed as a cyst with an inner layer of epidermis and an outer layer of dermis. We next wondered what mechanism controlled the induction of skin organoids and tested various treatment plans with or without insulin in the CDM during days 0-12 of differentiation (FIGS. 8A-8B). After 12 days, the aggregates were transferred to Matrigel in OMM as previously mentioned. […] Intriguingly, without insulin, the skin organoids were 2.5-3.5 times larger on average than insulin treated aggregates. We chose to continue our analysis with FGF/LDN and FGF/LDN/CHIR (without insulin) treated aggregates."}, "hPSC-derived aggregates [5]": {"tested_on": "hPSC-derived aggregates", "experiment": "Mesoderm induction (Brachyury immunohistochemistry) in hPSC aggregates", "procedure": "Representative Brachyury (BRA) immunohistochemistry in day 4 aggregates treated with 10 ng/ml BMP4 (a), 10 μM SB (b), and 10 μM SB+2.5 ng/ml BMP4 (c) on day 0. Scale bars, 50 μm.\nWith human PSCs, TGFβ inhibition and endogenous BMP signaling promotes formation of TFAP2+ ECAD+ surface ectoderm by 3-6 days of differentiation."}}, "data": [{"molecule": "Cc1c[nH]c(-c2cnc(NCCNc3ccc(C#N)cn3)nc2-c2ccc(Cl)cc2Cl)n1", "note": "[CHIR99021]", "values": [{"measurement": "organoids producing pigmented hair follicles", "setting": "[1]", "result": 75, "unit": "%"}]}, {"molecule": "c1ccc2c(-c3cnn4cc(-c5ccc(N6CCNCC6)cc5)cnc34)ccnc2c1", "note": "[LDN, LDN-193189]", "values": [{"measurement": "structures formed by aggregates", "setting": "hPSC-derived aggregates [2]", "result": "primarily formed keratinocyte cyts"}]}, {"molecule": "NC(=O)c1ccc(-c2nc(-c3ccc4c(c3)OCO4)c(-c3ccccn3)[nH]2)cc1", "note": "[SB, SB-431542]", "values": [{"measurement": "aggregates generating a 3D spheroid comprising TFAP2+KRT5+ keratinocytes", "setting": "[3]", "result": 100, "unit": "%"}]}, {"molecule": "insulin: insulin component of the chemically-defined differentiation medium (CDM)", "values": [{"measurement": "size (long-axis diameter) of skin organoids in insulin-free conditions relative to conditions with insulin", "setting": "[4]", "result": "2.5-3.5 times"}]}, {"molecule": "bone morphogenetic protein-4 (protein, UniProt P12644 293-408, looked up, agonist of BMP signaling) Bone morphogenetic protein 4: SPKHHSQRARKKNKNCRRHSLYVDFSDVGWNDWIVAPPGYQAFYCHGDCPFPLADHLNSTNHAIVQTLVNSVNSSIPKACCVPTELSAISMLYLDEYDKVVLKNYQEMVVEGCGCR", "values": [{"measurement": "induction of mesodermal (BRA+) cells", "setting": "hPSC-derived aggregates [5]; BMP treatment alone", "result": "mesoderm is induced"}, {"measurement": "induction of mesodermal (Brachyury+) cells", "setting": "hPSC-derived aggregates [5]; low concentration of BMP-4 during non-neural ectoderm induction", "result": "not induced"}]}]}
